Assay results from patent US20160120950A1, “Pharmaceutical Formulations Comprising Incretin Mimetic Peptide and Aprotic Polar Solvent” (Amylin Pharmaceuticals, LLC, priority 2008, published 2016).

Columns and labels:
[1] = Stability of exendin-4 in DMSO, DMSO/0.5% water and aqueous buffer pH 4.5, SCX-HPLC purity (Example 1); format: physicochemical; conditions: FIGS. 3 and 4, 25° C. and 40° C.
Procedure: (§1) The stability of exendin-4 in DMSO and DMSO with 0.5% water added may be evaluated as follows. The evaluation may be based on the stability of exendin-4 samples stored at 5, 25, and 40° C. for up to 6 months. Further, the stability of exendin-4 in DMSO, as compared to aqueous buffers at a pH of 4.5 may be evaluated.
(§2) Three HPLC methods may be used to analyze the samples: size exclusion HPLC (SEC-HPLC) to determine potency (mg/ml) and two methods to evaluate purity (%), a strong cation exchange (SCX) method and a reversed-phase (RP) method. The methods may be adapted as necessary to achieve appropriate sample analysis. Additionally, the water content of the samples may be evaluated using a suitable Karl Fischer analytical procedure.
For a six-month delivery period, approximately 3600 μg of exendin-4 may be desirable based on a 20 μg/day dose. Assuming a representative delivery reservoir of approximately 150 μL, a concentration of about 25 mg/mL may be desirable. Further, proteins and peptides are commonly lyophilized and often include some residual moisture. As such, the effect of water on peptide stability may be investigated, and samples may be prepared in neat DMSO and in DMSO with 0.5% water added.
This concentration of water will depress the 18.6° C. freezing point of DMSO to only about 17.5° C. […]

[2] = Stability of exendin-4 in DMSO formulations, text summary of SCX- and RP-HPLC purity (Example 1, FIGS. 1 and 2); format: physicochemical
Procedure: as §1, §2
More particularly, 25 mg/mL samples of exendin-4 in neat DMSO and DMSO/0.5% water are prepared in N2 atmosphere and held at 5, 25, and 40° C. for 6 months (abbreviated as “mos.”).
Exendin-4 may be formulated in DMSO and DMSO spiked with 0.5% water. […] Exendin-4 purity is reduced about 28% from initial values after 6 months at 40° C. At 25° C., the purity is decreased about 3 to 4% over the same time period. (See FIGS. 1 and 2). However, at 5° C. the purity remains within 0.4 to 0.6% of initial purity values. […] By comparison to aqueous product stability (FIGS. 3 and 4), it is apparent that exendin-4 stability is improved in the aprotic, polar solvent DMSO.

[3] = Stability of exendin-4 in DMSO and DMSO/0.5% water, SEC-HPLC potency (Example 1); format: physicochemical; conditions: in DMSO and DMSO with 0.5% water, up to 6 months at 5, 25, 40° C.
Procedure: as §1, §2
For example, SEC-HPLC can be used to measure the potency of an exendin-4 solution by external standard assay, based on total peptide content of the exendin-containing solution at 214 nm, as compared to qualified reference standard solutions. The identity, potency and label strength of exendin-4 can be established by comparison of the retention times of the exendin-4 peaks in the sample and reference standard solutions.
For a six-month delivery period, approximately 3600 μg of exendin-4 may be desirable based on a 20 μg/day dose. Assuming a representative delivery reservoir of approximately 150 μL, a concentration of about 25 mg/mL may be desirable. […]

[4] = Exendin-4 stability in aprotic, polar solvent systems, SCX-Purity (Example 2); format: physicochemical; conditions: 10% w/w water (0.67 mole fraction DMSO)
Procedure: The stability of exendin-4 in other aprotic, polar solvents and in DMSO-based co-solvent systems may also be evaluated. The evaluation may be based on the stability of exendin-4 samples stored at 5, 25, and 37° C. for up to 6 months. In addition to dimethyl sulfoxide (DMSO), solvents for evaluation include water, dimethyl acetamide (DMA), dimethyl formamide (DMF), N-methylpyrrolidone (NMP), Propylene carbonate, and ethyl acetate.
Three HPLC methods may be used to analyze the samples: size exclusion HPLC (SEC-HPLC) to determine potency (mg/ml) and two methods to evaluate purity (%), a strong cation exchange (SCX) method and a reversed-phase (RP) method. […] Additionally, the water content of the samples may be evaluated using a suitable Karl Fischer analytical procedure.
Nonaqueous Solvents: The stability of exendin-4 in aprotic, polar solvents with freezing points lower than 0° C. may be evaluated. […]
Co-solvent System with Water: Water at approximately 8% w/w depresses the freezing point of DMSO to just below 0° C. To provide additional protection against freezing, a 10% w/w water solution may be evaluated. […]
Co-solvent Systems with Aprotic, Polar Solvents: Other solvents can also be used to depress the freezing point of DMSO. […] Appropriate amounts of the non-aqueous solvent may first be determined. Next the solubility of exendin-4 may be evaluated by visual inspection in the co-solvent mixture. […]

[5] = tested on: cloned GLP-1 receptor; conditions: cells transfected with the cloned GLP-1 receptor; cited from earlier work

Row | Substance | stability in DMSO by comparison to aqueous product stability [1] | difference due to the presence of 0.5% water ([2]; DMSO vs DMSO spiked with 0.5% water) | purity reduced from initial values ([2]; in DMSO and DMSO with 0.5% water, 6 months at 40° C.) | changes in potency [3] | stability of exendin-4 in DMSO solvent solution containing 10% w/w water [4] | activity at the cloned GLP-1 receptor (cAMP) [5]
1 | Exendin-4 | improved | no substantial difference | about 28% | Essentially no changes | enhanced | agonist
2 | exendin[9-39] |  |  |  |  |  | antagonist
